Data: patent US9029325B2, “Amylin analogues and pharmaceutical compositions thereof” (Novo Nordisk A/S, priority 2011, dated 2015)
Read-outs that look alike come from different tables or passages of the source. Starred links: 1 amine or outer side, 2 acyl side, 3 side chain; linkers in the order of their positions; H or OH if unused. Positions of bridges follow the written chain, without caps; N, C: chain ends. Residues, ends and D or L forms follow the SMILES beside them. Groups on a side chain read outwards from the residue. *: point of attachment. C20 diacid = O=C(O)CCCCCCCCCCCCCCCCCCC(=O)*; γGlu = O=C(O)[C@H](CCC(=O)[*:2])N[*:1]

How the values were obtained:
[1] = Assay (I) efficacy testing on appetite (food intake), ad libitum fed rat model; assay type: in vivo, Sprague Dawley (SD) rats; conditions: 3 nmol/kg
Method in brief: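 Single ip, po or sc dosing (0.01-3 mg/kg, by body weight) at the start of the dark phase, in individually housed Sprague Dawley rats of 200-250 g with free food and water. Intake was logged per rat each hour to 7 h, then at 24 h (occasionally 48 h), against a vehicle group; outliers removed by Grubbs test.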

[2] = molecular target: T1, human amylin receptor (amylin 3(a) receptor: human calcitonin receptor + RAMP-3) (Homo sapiens, UniProt O60896+P30988); assay: Assay (II)a functional human amylin receptor CRE-luciferase assay; assay type: cell-based; conditions: Table 11
T1 construct: expressed in transfected cells
T1 sequence (P30988 25-474): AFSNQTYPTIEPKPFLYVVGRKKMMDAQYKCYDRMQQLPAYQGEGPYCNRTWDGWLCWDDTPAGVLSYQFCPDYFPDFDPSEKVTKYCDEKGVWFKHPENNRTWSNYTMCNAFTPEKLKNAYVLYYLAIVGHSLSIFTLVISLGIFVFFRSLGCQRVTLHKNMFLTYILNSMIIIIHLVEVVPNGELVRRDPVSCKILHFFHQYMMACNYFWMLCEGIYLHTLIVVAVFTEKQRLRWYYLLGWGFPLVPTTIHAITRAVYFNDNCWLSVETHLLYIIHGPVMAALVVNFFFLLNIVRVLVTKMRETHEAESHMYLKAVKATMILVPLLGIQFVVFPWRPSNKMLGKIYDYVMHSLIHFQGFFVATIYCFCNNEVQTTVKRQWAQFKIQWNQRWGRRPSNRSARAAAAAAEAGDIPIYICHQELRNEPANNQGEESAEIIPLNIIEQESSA
T1 sequence (O60896 24-148 partner): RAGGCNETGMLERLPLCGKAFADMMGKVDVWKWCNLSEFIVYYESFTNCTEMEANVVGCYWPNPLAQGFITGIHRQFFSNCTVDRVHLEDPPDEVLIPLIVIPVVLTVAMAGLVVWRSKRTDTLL
Description: (§1) Activation of calcitonin and amylin (coexpression of calcitonin receptor and receptor activity modifying proteins (RAMP)) receptors lead to increased intracellular concentrations of cAMP. Consequently, transcription is activated by promoters containing multiple copies of the cAMP response element (CRE). It is thus possible to measure amylin activity by the use of a CRE luciferase reporter gene introduced into BHK cells also expressing calcitonin or amylin receptors.
(§2) A BHK570 cell line was stably transfected with the human calcitonin receptor and a CRE-responsive luciferase reporter gene. The cell line was further transfected with RAMP-3, using standard methods. This turns the calcitonin receptor into an amylin 3(a) receptor. Methotrexate, Neomycin, and Hygromycin are selection markers for luciferase, the calcitonin receptor, and RAMP-3, respectively.
(§3) To perform activity assays, BHK calcitonin (a) receptor- or amylin 3(a)-receptor/CRE-luc cells were seeded in white 96 well culture plates at a density of about 20.000 cells/well. […] After incubation overnight at 37° C. and 5% CO2, the growth medium was replaced by 50 μl/well assay medium (DMEM (without phenol red), Glutamax™, 10% FBS, and 10 mM Hepes, pH 7.4). Further, 50 μl/well of standard or sample in assay buffer were added. […] Finally, luminescence was measured on a TopCounter (Packard) in SPC (single photon counting) mode.

[3] = molecular target: T2, human calcitonin receptor (CTa receptor) (Homo sapiens, UniProt P30988); assay: Assay (II)a functional human calcitonin receptor CRE-luciferase assay; assay type: cell-based; conditions: Table 11
T2 construct: expressed in transfected cells
T2 sequence (P30988 25-474): T1 sequence (P30988 25-474)
Description: as §1, §2, §3

[4] = molecular target: T3, rat amylin 3(a) receptor (rat calcitonin(a) receptor + rat RAMP3) (Rattus norvegicus, UniProt P32214+Q9JJ73); assay: Assay (II)b functional rat amylin receptor cAMP FlashPlate assay; assay type: cell-based; conditions: Table 11
T3 construct: expressed in transfected cells; host or cells: BHK tk'ts 13 (transient, FuGENE 6)
T3 sequence (P32214 25-479 isoform P32214-2 limits assumed): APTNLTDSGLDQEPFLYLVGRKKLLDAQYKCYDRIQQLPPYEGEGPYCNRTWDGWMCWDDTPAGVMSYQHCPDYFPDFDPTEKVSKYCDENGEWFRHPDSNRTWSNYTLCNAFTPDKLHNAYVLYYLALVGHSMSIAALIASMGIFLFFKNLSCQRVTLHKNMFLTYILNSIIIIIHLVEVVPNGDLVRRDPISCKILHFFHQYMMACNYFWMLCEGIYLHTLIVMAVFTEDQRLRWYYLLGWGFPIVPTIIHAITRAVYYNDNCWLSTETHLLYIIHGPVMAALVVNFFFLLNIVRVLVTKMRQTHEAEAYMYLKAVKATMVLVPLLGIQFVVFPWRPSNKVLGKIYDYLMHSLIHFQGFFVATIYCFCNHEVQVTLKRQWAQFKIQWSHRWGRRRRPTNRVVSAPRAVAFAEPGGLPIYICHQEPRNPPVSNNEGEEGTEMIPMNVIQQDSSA
T3 sequence (Q9JJ73 23-147 partner): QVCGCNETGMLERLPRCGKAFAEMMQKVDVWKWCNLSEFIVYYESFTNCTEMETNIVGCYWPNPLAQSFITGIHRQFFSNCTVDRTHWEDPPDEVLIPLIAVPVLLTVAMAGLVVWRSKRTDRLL
Description: (§4) Activation of calcitonin and amylin (coexpression of calcitonin receptor and receptor activity modifying proteins (RAMP)) receptors lead to increased intracellular concentrations of cAMP. In order to quantify the cAMP levels in transiently transfected cells the Adenylyl Cyclase Activation FlashPlate® Assay from Perkin Elmer was used. The basic principle of the FlashPlate® Assay is a competition between radioactive and non-radioactive cAMP generated by the cells for a fixed number of binding sites.
(§5) BHK tk′ts 13 cells were transiently transfected with either rat calcitonin (a) receptor or amylin 3 (a) receptor (rat calcitonin(a) receptor+ rat RAMP3) using FuGENE® 6 (Roche), according to the manufacturers recommendations.
(§6) 24 hours after transient transfection the cells (rat calcitonin(a)—or rat amylin 3(a)—receptor cells) were added (100.000 cells/well) to the 96 well FlashPlates® with samples or standard in FlashPlate stimulation buffer with IBMX and incubated for 30 min. Detection mix was created according to manufacturers protocol and scintillation measured after 3 h of incubation on TopCounter™ (Packard).

[5] = molecular target: T4, rat calcitonin (a) receptor (Rattus norvegicus, UniProt P32214); assay: Assay (II)b functional rat calcitonin receptor cAMP FlashPlate assay; assay type: cell-based; conditions: Table 11; read-out: CTa receptor rat EC50
T4 construct: expressed in transfected cells; host or cells: BHK tk'ts 13 (transient, FuGENE 6)
T4 sequence (P32214 25-479 isoform P32214-2 limits assumed): T3 sequence (P32214 25-479 isoform P32214-2 limits assumed)
Description: as §4, §5, §6

[6] = Assay (IV) determination of solubility; assay type: physicochemical
Method: The polypeptide was dissolved in water at −500 nmol/ml and mixed 1:1 with a series of buffers (100 mM glycylglycine pH 3.0, 100 mM glycylglycine pH 4.0, 100 mM glycylglycine pH 5.0, 100 mM bistrispropane pH 6.0, 100 mM bistrispropane pH 6.5, 100 mM bistrispropane pH 7.0, 100 mM bistrispropane pH 7.5, 100 mM bistrispropane pH 8.0). After 18 hours at room temperature the samples were centrifuged and the polypeptide concentration determined by UPLC.

EC50 [2]: 142 pM
EC50 [3]: 228 pM
EC50 [4]: 106 pM
EC50 [5]: 437 pM
solubility at 18 h ([6]; pH 3.0, read-out: Solubility (μM) pH 3.0): > 200 µM
solubility at 18 h ([6]; pH 4.0, read-out: Solubility (μM) pH 4.0): > 200 µM
solubility at 18 h ([6]; pH 5.0, read-out: Solubility (μM) pH 5.0): > 200 µM
solubility at 18 h ([6]; pH 6.0, read-out: Solubility (μM) pH 6.0): > 200 µM
solubility at 18 h ([6]; pH 6.5, read-out: Solubility (μM) pH 6.5): > 200 µM
solubility at 18 h ([6]; pH 7.0, read-out: Solubility (μM) pH 7.0): > 200 µM
solubility at 18 h ([6]; pH 7.5, read-out: Solubility (μM) pH 7.5): > 200 µM
solubility at 18 h ([6]; pH 8.0, read-out: Solubility (μM) pH 8.0): > 200 µM
Compound: CC[C@H](C)[C@H](NC(=O)[C@@H]1CCCN1C(=O)CNC(=O)[C@H](Cc1ccccc1)NC(=O)[C@H](CC(N)=O)NC(=O)[C@H](CC(N)=O)NC(=O)[C@H](CO)NC(=O)[C@H](CO)NC(=O)[C@H](Cc1c[nH]cn1)NC(=O)[C@H](Cc1c[nH]cn1)NC(=O)[C@H](CC(C)C)NC(=O)[C@H](Cc1ccccc1)NC(=O)[C@H](CCC(=O)O)NC(=O)[C@H](C)NC(=O)[C@H](CC(C)C)NC(=O)[C@H](CCCNC(=N)N)NC(=O)[C@H](CCC(N)=O)NC(=O)[C@@H](NC(=O)[C@H](C)NC(=O)[C@@H]1CSSC[C@H](NC(=O)[C@@H](N)CCCCNC(=O)CC[C@H](NC(=O)CCCCCCCCCCCCCCCCCCC(=O)O)C(=O)O)C(=O)N[C@@H](CC(N)=O)C(=O)N[C@@H]([C@@H](C)O)C(=O)N[C@@H](C)C(=O)N[C@@H]([C@@H](C)O)C(=O)N1)[C@@H](C)O)C(=O)N[C@@H](CC(C)C)C(=O)N1CCC[C@H]1C(=O)N1CCC[C@H]1C(=O)N[C@H](C(=O)N[C@@H](CC(N)=O)C(=O)N[C@H](C(=O)NCC(=O)N[C@@H](CO)C(=O)N[C@@H](Cc1c[nH]cn1)C(=O)N[C@H](C(=O)N[C@@H](Cc1ccc(O)cc1)C(N)=O)[C@@H](C)O)C(C)C)[C@@H](C)O [compound 87] (H-K([γGlu-C20 diacid])CNTATCATQRLAEFLHHSSNNFGPILPPTNVGSHTY-NH2; disulfide 2-7 (inferred); C-terminus assumed)
Food intake reduction 0-24 h 3 nmol/kg (%) ([1]; 0-24 h): 66%
Food intake reduction 24-48 h 3 nmol/kg (%) ([1]; 24-48 h): 47%
